Assay results published in US10604476B2, “Fluorinated amide derivatives and their uses as therapeutic agents” (Trillium Therapeutics Inc., priority 2015, dated 2020).

Test system: spontaneous recurrent hippocampal paroxysmal discharges (HPD)
Test: Mesial temporal lobe epilepsy (mTLE) mouse model
Type: in vivo
Conditions: 125 mg/kg; mice lesioned with intrahippocampal kainic acid
From the text: The MTLE mouse model recapitulates many of the characteristics observed in human patients with temporal lobe epilepsy (TLE). The MTLE mouse is characterized by an initial neurotoxic event, a unilateral intrahippocampal injection of kainic acid (KA) into the dorsal hippocampus, which induces non-convulsive SE lasting several hours. This initial event is followed by a latent phase. Two to three weeks after KA injection, spontaneous recurrent hippocampal paroxysmal discharges (HPD) are only recorded in the epileptic hippocampus and remain stable and stereotyped for the whole life of the animal. These HPDs occur spontaneously about 30-60 times per hour when the animals are in a state of quiet wakefulness, generally last 15-20 sec and are associated with behavioral arrest and/or mild motor automatisms. […] Data are analyzed for the period of 10 minutes before and 10 minutes after peak time of effect of the investigational compound, as determined from the 6 Hz 44 mA seizure test. […] Data are presented as the raw number of HPDs during the analyzed 20 min period (10 minutes before and 10 minutes after peak time of effect of compound) for each MTLE mouse, group mean number of HPDs, and effect on suppression as represented by percent of baseline HPD values.

C[C@@H](Oc1cc(Cl)cc(C(F)(F)F)c1)C(N)=O [I(D), (2R)-2-[3-chloro-5-(trifluoromethyl)-phenoxy]propanamide]
effect against spontaneous recurrent hippocampal paroxysmal discharges (HPD): effective
